# Measured values reported in publication PMC11070402, “New antiproliferative 3-substituted oxindoles inhibiting EGFR/VEGFR-2 and tubulin polymerization” (Molecular Diversity, 2023).
# Several values for one entry are separate records, joined by “and”; a condition that tells them apart may be missing. Equal values may be shown once. Read-outs that look alike come from different tables or passages of the source.
# Key:
# UO-31 = experiment: NCI one-dose assay, UO-31; assay type: cell-based; settings: Homo sapiens; UO-31; 10 µM single dose, 48 h incubation; read-out: cell growth inhibition % (GI %)
# Procedure: (§1) All novel scaffolds 6a–j were carefully selected by the National Cancer Institute (NCI), Bethesda, USA, to elucidate their cytotoxic activity versus 60 human cancer cell lines at 10 µM as a single-dose concentration after a 48 h incubation period.
# (§2) National Cancer Institution selected all the synthesized 6a–j (NCI), Bethesda, USA, for in vitro one-dose antitumor assay. The methodology protocol for the NCI anticancer screening was reported in detail elsewhere (http://www.dtp.nci.nih.gov). The anticancer assay was performed in full NCI 60 cell lines extracted from nine tumor cell lines, including leukemia, melanoma, lung, colon, CNS, ovarian, renal, prostate, and breast cancer cell lines.
# T-47D = experiment: NCI one-dose assay, T-47D; assay type: cell-based; settings: Homo sapiens, T47D; T-47D; 10 µM single dose, 48 h incubation; read-out: cell growth inhibition % (GI %)
# Procedure: as §1, §2
# NCI-H23 = experiment: NCI one-dose assay, NCI-H23; assay type: cell-based; settings: Homo sapiens; NCI-H23; 10 µM single dose, 48 h incubation; read-out: cell growth inhibition % (GI %)
# Procedure: as §1, §2
# MCF-7 = experiment: NCI one-dose assay, MCF-7; assay type: cell-based, human; settings: MCF-7, 10 µM single dose, 48 h incubation
# Procedure: as §1, §2
# [1] = system: HOP-92 (non-small cell lung cancer cell line); experiment: NCI one-dose assay, HOP-92; assay type: cell-based; settings: Homo sapiens; HOP-92 (Non-Small Cell Lung Cancer), 10 uM single dose; read-out: Growth inhibition %
# Procedure: as §1, §2
# LOX IMVI = experiment: NCI one-dose assay, LOX IMVI; assay type: cell-based; settings: Homo sapiens; LOX IMVI; 10 µM single dose, 48 h incubation; read-out: cell growth inhibition % (GI %)
# Procedure: as §1, §2
# SK-MEL-5 = experiment: NCI one-dose assay, SK-MEL-5; assay type: cell-based; settings: Homo sapiens; SK-MEL-5; 10 µM single dose, 48 h incubation; read-out: cell growth inhibition % (GI %)
# Procedure: as §1, §2
# [2] = system: 60 human cancer cell lines; experiment: NCI one-dose assay against sixty NCI cancer cell lines; assay type: cell-based
# Procedure: as §1, §2
# K-562 = experiment: NCI one-dose assay, K-562; assay type: cell-based; settings: Homo sapiens, K562; K-562; 10 µM single dose, 48 h incubation; read-out: cell growth inhibition % (GI %)
# Procedure: as §1, §2
# A549/ATCC = experiment: NCI one-dose assay, A549/ATCC; assay type: cell-based; settings: Homo sapiens, 10 µM single dose, 48 h incubation, read-out: cell growth inhibition % (GI %)
# Procedure: as §1, §2
# MOLT-4 = experiment: NCI one-dose assay, MOLT-4; assay type: cell-based; settings: Homo sapiens; MOLT-4; 10 µM single dose, 48 h incubation; read-out: cell growth inhibition % (GI %)
# Procedure: as §1, §2
# [3] = system: MCF-7 (human breast cancer); experiment: Cytotoxicity versus MCF-7 cell line (MTT assay); settings: MCF7, read-out: MCF-7 (IC50 ± SD, uM)
# Procedure: IC50 values were recorded using the Boltzman sigmoidal concentration–response curve equation using the nonlinear regression fitting models by GraphPad, Prism version 5 (GraphPad Software Inc., La Jolla, CA). MTT assay for MCF-7 cell lines. Cell line cells were obtained from American Type Culture Collection. Cells were cultured using DMEM media (Invitrogen/Life Technologies) supplemented with 10% FBS (Hyclone), 10 ug/ml of insulin (Sigma), and 1% penicillin–streptomycin. All the other chemicals and reagents were purchased from Sigma or Invitrogen. Cells were seeded in plates (cells density 1.2–1.8 × 10,000 cells/well) in a volume of 100 μl full-growth medium + 100 μl of the tested scaffold per well in a 96-well plate for 24 h before the application of the MTT assay protocol as reported, supplementary information.
# [4] = system: SNB-75 cells (CNS cancer cell line); experiment: NCI one-dose assay, SNB-75; assay type: cell-based; settings: Homo sapiens; SNB-75 (CNS Cancer), 10 uM single dose; read-out: Growth inhibition %
# Procedure: as §1, §2
# SR = experiment: NCI one-dose assay, SR; assay type: cell-based; settings: Homo sapiens; SR; 10 µM single dose, 48 h incubation; read-out: cell growth inhibition % (GI %)
# Procedure: as §1, §2
smiles,measurement,setting,value
"O=C1Nc2cc(Cl)ccc2C1=Cc1ccc(OCC(=O)c2ccc(Br)cc2)cc1 [Compound 6g, 6-Chloro-3-{4-[2-(4-bromophenyl)-2-oxoethoxy]benzylidene}indolin-2-one]",inhibition at 10 µM,UO-31,59.4%
same,inhibition at 10 µM,T-47D,55.2%
same,inhibition at 10 µM,NCI-H23,46.8%
same,inhibition at 10 µM,"MCF-7; Homo sapiens, MCF7, 48 h, read-out: cell growth inhibition % (GI %)",70.3%
same,cell growth inhibition % (GI %),MCF-7,70.03% and 71.12%
same,inhibition at 10 µM,[1],30.8%
same,inhibition at 10 µM,LOX IMVI,45.8%
same,inhibition at 10 µM,SK-MEL-5,61.2%
same,inhibition at 10 µM,"[2]; 786-0 (Renal Cancer), 10 uM single dose, read-out: Growth inhibition %",15.6%
same,inhibition at 10 µM,"[2]; ACHN (Renal Cancer), 10 uM single dose, read-out: Growth inhibition %",31.2%
same,inhibition at 10 µM,"[2]; BT-549 (Breast Cancer), 10 uM single dose, read-out: Growth inhibition %",44.3%
same,inhibition at 10 µM,"[2]; CAKI-1 (Renal Cancer), 10 uM single dose, read-out: Growth inhibition %",47.6%
same,inhibition at 10 µM,"[2]; CCRF-CEM (Leukemia), 10 uM single dose, read-out: Growth inhibition %",34.3%
same,inhibition at 10 µM,"[2]; COLO 205 (Colon Cancer), 10 uM single dose, read-out: Growth inhibition %",44.7%
same,inhibition at 10 µM,"[2]; DU-145 (Prostate Cancer), 10 uM single dose, read-out: Growth inhibition %",12.4%
same,inhibition at 10 µM,"[2]; EKVX (Non-Small Cell Lung Cancer), 10 uM single dose, read-out: Growth inhibition %",43.8%
same,inhibition at 10 µM,"[2]; HCC-2998 (Colon Cancer), 10 uM single dose, read-out: Growth inhibition %",17.5%
same,inhibition at 10 µM,"[2]; HCT-15 (Colon Cancer), 10 uM single dose, read-out: Growth inhibition %",46.9%
same,inhibition at 10 µM,"[2]; HCT-116 (Colon Cancer), 10 uM single dose, read-out: Growth inhibition %",42.1%
same,inhibition at 10 µM,"[2]; HL-60(TB) (Leukemia), 10 uM single dose, read-out: Growth inhibition %",53.8%
same,inhibition at 10 µM,"[2]; HS 578T (Breast Cancer), 10 uM single dose, read-out: Growth inhibition %",22.4%
same,inhibition at 10 µM,"[2]; HT-29, HT29 (Colon Cancer), 10 uM single dose, read-out: Growth inhibition %",16.1%
same,inhibition at 10 µM,"[2]; IGROV-1, IGROV1 (Ovarian Cancer), 10 uM single dose, read-out: Growth inhibition %",34.6%
same,inhibition at 10 µM,"[2]; KM12 (Colon Cancer), 10 uM single dose, read-out: Growth inhibition %",28.7%
same,inhibition at 10 µM,"[2]; M14 (Melanoma), 10 uM single dose, read-out: Growth inhibition %",31.1%
same,inhibition at 10 µM,"[2]; MALME-3M (Melanoma), 10 uM single dose, read-out: Growth inhibition %",12.9%
same,inhibition at 10 µM,"[2]; MDA-MB-231, read-out: Growth inhibition %",23.4%
same,inhibition at 10 µM,"[2]; MDA-MB-435 (Melanoma), 10 uM single dose, read-out: Growth inhibition %",24.8%
same,inhibition at 10 µM,"[2]; MDA-MB-468 (Breast Cancer), 10 uM single dose, read-out: Growth inhibition %",42.3%
same,inhibition at 10 µM,"[2]; NCI-H226 (Non-Small Cell Lung Cancer), 10 uM single dose, read-out: Growth inhibition %",37.9%
same,inhibition at 10 µM,"[2]; NCI-H322M (Non-Small Cell Lung Cancer), 10 uM single dose, read-out: Growth inhibition %",18.1%
same,inhibition at 10 µM,"[2]; NCI-H460 (Non-Small Cell Lung Cancer), 10 uM single dose, read-out: Growth inhibition %",41%
same,inhibition at 10 µM,"[2]; NCI-H522 (Non-Small Cell Lung Cancer), 10 uM single dose, read-out: Growth inhibition %",49.4%
same,inhibition at 10 µM,"[2]; OVCAR-3 (Ovarian Cancer), 10 uM single dose, read-out: Growth inhibition %",15.7%
same,inhibition at 10 µM,"[2]; OVCAR-4 (Ovarian Cancer), 10 uM single dose, read-out: Growth inhibition %",44.5%
same,inhibition at 10 µM,"[2]; OVCAR-5 (Ovarian Cancer), 10 uM single dose, read-out: Growth inhibition %",13.9%
same,inhibition at 10 µM,"[2]; OVCAR-8 (Ovarian Cancer), 10 uM single dose, read-out: Growth inhibition %",30.7%
same,inhibition at 10 µM,"[2]; PC-3 (Prostate Cancer), 10 uM single dose, read-out: Growth inhibition %",51.4%
same,inhibition at 10 µM,"[2]; RPMI-8226 (Leukemia), 10 uM single dose, read-out: Growth inhibition %",43.6%
same,inhibition at 10 µM,"[2]; RXF 393 (Renal Cancer), 10 uM single dose, read-out: Growth inhibition %",44.8%
same,inhibition at 10 µM,"[2]; SF-268 (CNS Cancer), 10 uM single dose, read-out: Growth inhibition %",22%
same,inhibition at 10 µM,"[2]; SF-295 (CNS Cancer), 10 uM single dose, read-out: Growth inhibition %",45.1%
same,inhibition at 10 µM,"[2]; SF-539 (CNS Cancer), 10 uM single dose, read-out: Growth inhibition %",30.6%
same,inhibition at 10 µM,"[2]; SK-MEL-2 (Melanoma), 10 uM single dose, read-out: Growth inhibition %",29.8%
same,inhibition at 10 µM,"[2]; SK-MEL-28 (Melanoma), 10 uM single dose, read-out: Growth inhibition %",19.4%
same,inhibition at 10 µM,"[2]; SN12C (Renal Cancer), 10 uM single dose, read-out: Growth inhibition %",45.2%
same,inhibition at 10 µM,"[2]; SNB-19 (CNS Cancer), 10 uM single dose, read-out: Growth inhibition %",18.5%
same,inhibition at 10 µM,"[2]; SW-620 (Colon Cancer), 10 uM single dose, read-out: Growth inhibition %",14.1%
same,inhibition at 10 µM,"[2]; U-251, U251 (CNS Cancer), 10 uM single dose, read-out: Growth inhibition %",25.8%
same,inhibition at 10 µM,"[2]; UACC-62 (Melanoma), 10 uM single dose, read-out: Growth inhibition %",42%
same,inhibition at 10 µM,"[2]; UACC-257 (Melanoma), 10 uM single dose, read-out: Growth inhibition %",27.1%
same,inhibition at 10 µM,K-562,58.3%
same,inhibition at 10 µM,A549/ATCC,49.9%
same,inhibition at 10 µM,MOLT-4,61.6%
same,IC50,[3],25.4 ± 1.23 µM
same,inhibition at 10 µM,[4],31.1%
same,inhibition at 10 µM,SR,59.7%
